Biological target: T1, human Npt2a (Homo sapiens, UniProt Q06495)
T1 construct: expressed in transfected cells
T1 sequence (Q06495 1-639): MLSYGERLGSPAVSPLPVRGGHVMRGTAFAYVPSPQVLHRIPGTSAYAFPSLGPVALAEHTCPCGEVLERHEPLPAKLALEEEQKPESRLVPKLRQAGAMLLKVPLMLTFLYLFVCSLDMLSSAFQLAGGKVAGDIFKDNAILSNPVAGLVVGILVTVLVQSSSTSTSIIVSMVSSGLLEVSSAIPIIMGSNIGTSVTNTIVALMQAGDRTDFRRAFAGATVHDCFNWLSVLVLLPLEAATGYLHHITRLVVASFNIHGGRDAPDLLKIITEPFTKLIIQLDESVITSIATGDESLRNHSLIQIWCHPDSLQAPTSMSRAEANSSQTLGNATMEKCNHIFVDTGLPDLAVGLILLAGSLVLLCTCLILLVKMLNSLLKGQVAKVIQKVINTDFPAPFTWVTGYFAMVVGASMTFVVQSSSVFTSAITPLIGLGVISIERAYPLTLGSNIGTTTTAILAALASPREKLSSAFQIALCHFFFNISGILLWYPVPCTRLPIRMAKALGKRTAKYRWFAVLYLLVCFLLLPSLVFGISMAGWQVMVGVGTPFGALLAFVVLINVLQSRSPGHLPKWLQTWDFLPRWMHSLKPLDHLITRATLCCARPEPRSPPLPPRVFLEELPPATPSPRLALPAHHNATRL
Experiment: Npt2a activity cell based assay, membrane potential dye, CHO T-REx hNpt2a cells
Conditions: doxycycline-induced, depolarization by sodium phosphate influx, average or median values if tested more than once
Summary of the method: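 Cells were doxycycline-induced CHO T-REx hNpt2a, dye-loaded and pretreated 5 min at RT with 1 nM–50 μM compound in Na-free pH 7.4 buffer. IC50 was fit to the post/pre-trigger fluorescence ratio.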

Row | SMILES | IC50 [nM]
1 | CCOC(=O)c1c(Cl)c(C)nn1-c1cc(Nc2nn(C)c(-c3ccc(F)cc3)c2CC)ncn1 [Example 178, ethyl 4-chloro-1-(6-{[4-ethyl-5-(4-fluorophenyl)-1-methyl-1H-pyrazol-3-yl]amino}pyrimidin-4-yl)-3-methyl-1H-pyrazole-5-carboxylate] | 26
2 | CCc1c(Nc2cc(-n3nc(C)c(C(=O)N4CCCC4C)c3C)ncn2)nn(C)c1-c1ccc(F)cc1 (racemic) [Example 76, (±)-[1-(6-{[4-ethyl-5-(4-fluorophenyl)-1-methyl-1H-pyrazol-3-yl]amino}pyrimidin-4-yl)-3,5-dimethyl-1H-pyrazol-4-yl](2-methylpyrrolidin-1-yl)methanone] | 190
3 | Cc1cc(C)n(-c2cc(Nc3c(C)c(-c4ccc(OC(F)(F)F)cc4)nn3C)ncn2)n1 [Example 116, 6-(3,5-dimethyl-1H-pyrazol-1-yl)-N-{1,4-dimethyl-3-[4-(trifluoromethoxy)phenyl]-1H-pyrazol-5-yl}pyrimidin-4-amine] | 92.5
4 | Cc1nn(-c2cc(Nc3nn(C)c(-c4ccc(F)cc4)c3OC(F)F)ncn2)c(C)c1Cl [Example 413, 6-(4-chloro-3,5-dimethyl-1H-pyrazol-1-yl)-N-[4-(difluoromethoxy)-5-(4-fluorophenyl)-1-methyl-1H-pyrazol-3-yl]pyrimidin-4-amine] | 4
5 | Cc1nn(-c2cc(Nc3c(C)nn(-c4ccc(C#N)cc4)c3C)ncn2)c(C)c1CC(C)(C)O [Example 301, 4-[4-({6-[4-(2-hydroxy-2-methylpropyl)-3,5-dimethyl-1H-pyrazol-1-yl]pyrimidin-4-yl}amino)-3,5-dimethyl-1H-pyrazol-1-yl]benzonitrile] | 92
6 | Cc1nn(-c2cc(Nc3c(C)c(-c4ccc(C#N)cc4)nn3CC3CC3)ncn2)c(C)c1C(O)C(F)(F)F (racemic) [Example 358, 4-{1-(cyclopropylmethyl)-5-[(6-{3,5-dimethyl-4-[(±)-2,2,2-trifluoro-1-hydroxyethyl]-1H-pyrazol-1-yl}pyrimidin-4-yl)amino]-4-methyl-1H-pyrazol-3-yl}benzonitrile] | 10
7 | Cc1nn(-c2cc(Nc3c(C)c(-c4ccc(C(F)F)nc4)nn3C)ncn2)c(C)c1F [Example 485, N-{3-[6-(difluoromethyl)pyridin-3-yl]-1,4-dimethyl-1H-pyrazol-5-yl}-6-(4-fluoro-3,5-dimethyl-1H-pyrazol-1-yl)pyrimidin-4-amine] | 1350
8 | Cc1cc(C)n(-c2cc(Nc3c(C)c(-c4ccc(C#N)cc4)nn3C)ncn2)n1 [Example 197, 4-(5-{[6-(3,5-dimethyl-1H-pyrazol-1-yl)pyrimidin-4-yl]amino}-1,4-dimethyl-1H-pyrazol-3-yl)benzonitrile] | 28
9 | Cc1nn(-c2cc(Nc3c(C)c(-c4ccc(C#N)cc4)nn3CCC3CC3)ncn2)c(C(F)F)c1Cl [Example 237, 4-[5-({6-[4-chloro-5-(difluoromethyl)-3-methyl-1H-pyrazol-1-yl]pyrimidin-4-yl}amino)-1-(2-cyclopropylethyl)-4-methyl-1H-pyrazol-3-yl]benzonitrile] | 15
10 | CCOC(=O)c1c(C)nn(-c2cc(Nc3c(OC)c(-c4ccc(F)cc4)nn3CC3CC3)ncn2)c1C [Example 319, ethyl 1-(6-{[1-(cyclopropylmethyl)-3-(4-fluorophenyl)-4-methoxy-1H-pyrazol-5-yl]amino}pyrimidin-4-yl)-3,5-dimethyl-1H-pyrazole-4-carboxylate] | 82
11 | Cc1nn(-c2cc(Nc3c(C)c(-c4ccncc4)nn3CC3CC3)ncn2)c(C)c1C(C)(C)O [Example 380, 2-[1-(6-{[1-(cyclopropylmethyl)-4-methyl-3-(pyridin-4-yl)-1H-pyrazol-5-yl]amino}pyrimidin-4-yl)-3,5-dimethyl-1H-pyrazol-4-yl]propan-2-ol] | 170
12 | Cc1nn(-c2cc(Nc3nn(C)c(-c4ccc(F)cc4)c3C3CC3)ncn2)c2ccccc12 [Example 44, N-[4-cyclopropyl-5-(4-fluorophenyl)-1-methyl-1H-pyrazol-3-yl]-6-(3-methyl-1H-indazol-1-yl)pyrimidin-4-amine] | 5.35
13 | Cc1nn(-c2cc(Nc3nn(C)c(-c4ccc(F)cc4)c3C)ncn2)c(C)c1C(F)(F)F [Example 383, 6-[3,5-dimethyl-4-(trifluoromethyl)-1H-pyrazol-1-yl]-N-[5-(4-fluorophenyl)-1,4-dimethyl-1H-pyrazol-3-yl]pyrimidin-4-amine] | 5
14 | Cc1nn(-c2cc(Nc3nn(C)c(-c4ccc(F)cc4)c3OC(F)F)ncn2)c(C)c1C#N [Example 471, 1-(6-{[4-(difluoromethoxy)-5-(4-fluorophenyl)-1-methyl-1H-pyrazol-3-yl]amino}pyrimidin-4-yl)-3,5-dimethyl-1H-pyrazole-4-carbonitrile] | 7
15 | COc1ccc(-c2nn(CC3CC3)c(Nc3cc(-n4nc(C)c(C#N)c4C)ncn3)c2C)cc1 [Example 483, 1-(6-{[1-(cyclopropylmethyl)-3-(4-methoxyphenyl)-4-methyl-1H-pyrazol-5-yl]amino}pyrimidin-4-yl)-3,5-dimethyl-1H-pyrazole-4-carbonitrile] | 1250
16 | CCc1c(Nc2cc(-n3nc(C)c(C#N)c3C)ncn2)n[nH]c1-c1ccc(F)cc1 [Example 108, 1-(6-{[4-ethyl-5-(4-fluorophenyl)-1H-pyrazol-3-yl]amino}pyrimidin-4-yl)-3,5-dimethyl-1H-pyrazole-4-carbonitrile] | 94
17 | Cc1cc(C)n(-c2cc(Nc3nn(C)c(-c4ccc(C(F)(F)F)nc4)c3C)ncn2)n1 [Example 559, 6-(3,5-dimethyl-1H-pyrazol-1-yl)-N-{1,4-dimethyl-5-[6-(trifluoromethyl)pyridin-3-yl]-1H-pyrazol-3-yl}pyrimidin-4-amine] | 110
18 | COc1c(C)nn(-c2cc(Nc3nn(C)c(-c4ccc(F)cc4)c3OC(F)F)ncn2)c1C [Example 470, N-[4-(difluoromethoxy)-5-(4-fluorophenyl)-1-methyl-1H-pyrazol-3-yl]-6-(4-methoxy-3,5-dimethyl-1H-pyrazol-1-yl)pyrimidin-4-amine] | 3
19 | Cc1cc(C)n(-c2cc(Nc3c(C)nn(-c4ccc(F)cc4)c3C)ncn2)n1 [Example 78, 6-(3,5-dimethyl-1H-pyrazol-1-yl)-N-[1-(4-fluorophenyl)-3,5-dimethyl-1H-pyrazol-4-yl]pyrimidin-4-amine] | 247
20 | COc1c(C)nn(-c2cc(Nc3c(C)c(C45C6C7C4C4C5C6C74C#N)nn3CC3CC3)ncn2)c1C (stereo not drawn) [Example 514, 4-[1-(cyclopropylmethyl)-5-{[6-(4-methoxy-3,5-dimethyl-1H-pyrazol-1-yl)pyrimidin-4-yl]amino}-4-methyl-1H-pyrazol-3-yl]cubane-1-carbonitrile] | 9
21 | CCc1c(Nc2cc(-n3nc(C)c(Cl)c3C(C)(C)O)ncn2)nn(C)c1-c1ccc(F)cc1 [Example 195, 2-[4-chloro-1-(6-{[4-ethyl-5-(4-fluorophenyl)-1-methyl-1H-pyrazol-3-yl]amino}pyrimidin-4-yl)-3-methyl-1H-pyrazol-5-yl]propan-2-ol] | 3
22 | CCc1c(-c2ccc(F)cc2)nn(C)c1Nc1cc(-n2nc(C)cc2C)ncn1 [Example 12, 6-(3,5-dimethyl-1H-pyrazol-1-yl)-N-[4-ethyl-3-(4-fluorophenyl)-1-methyl-1H-pyrazol-5-yl]pyrimidin-4-amine] | 50
23 | Cc1nn(-c2cc(Nc3c(C)c(-c4ccc(F)cc4)nn3CC3CC3)ncn2)c(C)c1C(N(C)C)C(F)(F)F (racemic) [Example 504, N-[1-(cyclopropylmethyl)-3-(4-fluorophenyl)-4-methyl-1H-pyrazol-5-yl]-6-{4-[(±)-1-(dimethylamino)-2,2,2-trifluoroethyl]-3,5-dimethyl-1H-pyrazol-1-yl}pyrimidin-4-amine] | 5
24 | CCOC(=O)c1c(C)nn(-c2cc(Nc3c(CC)c(-c4ccc(F)cc4)nn3CC3CC3)ncn2)c1C [Example 147, ethyl 1-(6-{[1-(cyclopropylmethyl)-4-ethyl-3-(4-fluorophenyl)-1H-pyrazol-5-yl]amino}pyrimidin-4-yl)-3,5-dimethyl-1H-pyrazole-4-carboxylate] | 3
25 | Cc1cc(C)n(-c2cc(Nc3c(C)c(-c4ccc(F)cc4)nn3CC(O)C3CC3)ncn2)n1 (racemic) [Example 369, (±)-1-cyclopropyl-2-[5-{[6-(3,5-dimethyl-1H-pyrazol-1-yl)pyrimidin-4-yl]amino}-3-(4-fluorophenyl)-4-methyl-1H-pyrazol-1-yl]ethanol] | 420
26 | Cc1c(-c2ccc(F)cc2)nn(C)c1Nc1cc(-n2cc(C(F)(F)F)cn2)ncn1 [Example 427, N-[3-(4-fluorophenyl)-1,4-dimethyl-1H-pyrazol-5-yl]-6-[4-(trifluoromethyl)-1H-pyrazol-1-yl]pyrimidin-4-amine] | 15
27 | Cc1nn(-c2cc(Nc3nn(C)c(-c4ccccc4)c3C)ncn2)c(C)c1Cl [Example 84, 6-(4-chloro-3,5-dimethyl-1H-pyrazol-yl)-N-(1,4-dimethyl-5-phenyl-1H-pyrazol-3-yl)pyrimidin-4-amine] | 75.5
